Laboratory results published in patent US5354748A, “Oral antibacterial compositions and method for the improvement of gastrointestinal absorption of penem or carbapenem antibiotics” (Suntory Limited, priority 1991, dated 1994).
Read-outs that look alike come from different tables or passages of the source.

Test: Oral absorption of penem in rats with simultaneous administration of cilastatin (Example 3)
Format: in vivo, Sprague-Dawley male rats
Settings: rat; for AUC at 2 h / Cmax / bioavailability: plasma, po, 57.1 mg/kg, oral 57.1 mg (titer)/Kg; for bioavailability: read-out: Absorption (Oral Absorption Percentage A)
Protocol: Those compositions were separately and orally administered to seven-week-old, Sprague-Dawley male rats to give a dose of 57.1 mg (titer)/Kg in terms of the penem carboxylate. The blood was drawn from the femoral artery via a polyethylene catheter over 2.0 hours after the administration.

Increase of oral absorption percentage relative to single administration (oral, cilastatin 1/2000 of the penem carboxylate): 2.5 times | AUC at 2 h (penem:cilastatin molar ratio 1:1): 25900 ng·h/mL | Cmax (penem:cilastatin molar ratio 1:1, read-out: Highest concentration in plasma): 12400 ng/mL | bioavailability (penem:cilastatin molar ratio 1:1, vs AUCiv): 114% | AUC at 2 h (penem:cilastatin molar ratio 10:1): 19600 ng·h/mL | Cmax (penem:cilastatin molar ratio 10:1, read-out: Highest concentration in plasma): 12700 ng/mL | bioavailability (penem:cilastatin molar ratio 10:1, vs AUCiv): 86.3% | AUC at 2 h (penem:cilastatin molar ratio 100:1): 21100 ng·h/mL | Cmax (penem:cilastatin molar ratio 100:1, read-out: Highest concentration in plasma): 8680 ng/mL | bioavailability (penem:cilastatin molar ratio 100:1, vs AUCiv): 93% | AUC at 2 h (penem:cilastatin molar ratio 300:1): 18300 ng·h/mL | Cmax (penem:cilastatin molar ratio 300:1, read-out: Highest concentration in plasma): 7890 ng/mL | bioavailability (penem:cilastatin molar ratio 300:1, vs AUCiv): 80.3% | AUC at 2 h (penem:cilastatin molar ratio 600:1): 14900 ng·h/mL | Cmax (penem:cilastatin molar ratio 600:1, read-out: Highest concentration in plasma): 8080 ng/mL | bioavailability (penem:cilastatin molar ratio 600:1, vs AUCiv): 65.6% | AUC at 2 h (penem:cilastatin molar ratio 1000:1): 12200 ng·h/mL | Cmax (penem:cilastatin molar ratio 1000:1, read-out: Highest concentration in plasma): 6890 ng/mL | bioavailability (penem:cilastatin molar ratio 1000:1, vs AUCiv): 53.7% | AUC at 2 h (penem:cilastatin molar ratio 2000:1): 10900 ng·h/mL | Cmax (penem:cilastatin molar ratio 2000:1, read-out: Highest concentration in plasma): 7690 ng/mL | bioavailability (penem:cilastatin molar ratio 2000:1, vs AUCiv): 48.1% | AUC at 2 h (single administration (penem alone)): 4420 ng·h/mL | Cmax (single administration (penem alone), read-out: Highest concentration in plasma): 4810 ng/mL | bioavailability (single administration (penem alone), vs AUCiv): 19.4%
Structure (SMILES): C[C@@H](O)[C@H]1C(=O)N2C(C(=O)O)=C([C@H]3CCCO3)S[C@H]12 [sodium (1'R,2"R,5R,6S)-6-(1'-hydroxyethyl)-2-(2"-tetrahydrofuranyl)penem-3-carboxylate 2.5 hydrate]
